Source: patent US20130203718A1 (priority 2010, published 2013)

Legend:
[1] = biological target: T1, hMR (Homo sapiens, UniProt P08235); test: APRn selectivity: transactivation in HEK293T cells transiently expressing hMR; type: cell-based; details: mean±SEM; for MR Antagonist efficacy (%): aldosterone 10^−9 M
T1 construct: expressed in transfected cells; host or cells: HEK 293T
T1 sequence (P08235 1-984): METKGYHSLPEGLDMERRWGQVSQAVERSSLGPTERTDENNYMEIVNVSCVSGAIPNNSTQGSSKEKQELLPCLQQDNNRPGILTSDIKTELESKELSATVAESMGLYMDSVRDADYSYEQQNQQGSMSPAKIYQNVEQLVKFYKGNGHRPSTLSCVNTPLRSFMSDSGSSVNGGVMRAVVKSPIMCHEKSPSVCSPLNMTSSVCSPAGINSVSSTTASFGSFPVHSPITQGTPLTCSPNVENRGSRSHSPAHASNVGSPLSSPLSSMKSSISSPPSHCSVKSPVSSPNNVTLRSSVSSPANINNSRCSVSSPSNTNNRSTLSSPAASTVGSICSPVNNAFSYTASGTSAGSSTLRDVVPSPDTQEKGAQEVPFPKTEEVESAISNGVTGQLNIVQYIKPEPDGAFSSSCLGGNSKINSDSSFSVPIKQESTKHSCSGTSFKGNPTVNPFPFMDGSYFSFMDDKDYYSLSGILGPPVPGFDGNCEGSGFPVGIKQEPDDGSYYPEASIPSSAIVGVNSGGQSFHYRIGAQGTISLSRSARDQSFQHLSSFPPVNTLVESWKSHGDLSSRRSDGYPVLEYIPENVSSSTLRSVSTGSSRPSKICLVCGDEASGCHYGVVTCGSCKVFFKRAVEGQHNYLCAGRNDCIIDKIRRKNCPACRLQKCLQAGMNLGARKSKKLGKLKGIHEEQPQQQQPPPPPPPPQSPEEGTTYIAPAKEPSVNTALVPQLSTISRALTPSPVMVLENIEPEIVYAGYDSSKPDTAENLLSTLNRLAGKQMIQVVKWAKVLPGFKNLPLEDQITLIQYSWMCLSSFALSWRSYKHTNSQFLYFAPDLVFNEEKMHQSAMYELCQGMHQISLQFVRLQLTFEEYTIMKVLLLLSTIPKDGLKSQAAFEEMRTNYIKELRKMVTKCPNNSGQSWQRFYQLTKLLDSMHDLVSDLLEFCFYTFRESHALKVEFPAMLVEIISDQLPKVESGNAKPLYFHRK
Procedure: Measurement of the APRn Selectivity in HEK 293T.
The HEK-293T cells were cultured and transfected according to the method described above for the PR transactivation assays. The expression vectors pcDNA-hAR, kindly provided by G. A. Coetzee, pchGR (Hellal-Levy, C et al. FEBS Lett 1999, 464, 9), and pchMR (Fagart, J. et al. EMBO J. 1998, 17, 3317) were used for studying the ability of APRn to activate or inactivate the AR, GR and MR, respectively. For each transfection assays, 2 μg of the expression vector was used together with 7 μg of the GRE2-Luc reporter vector. Dihydrotestosterone (DHT), dexamethasone (Dex) and Aldosterone (Aldo) were selected as AR, GR and MR ligands, respectively. They were used at the concentration of 10^−9 M. The APRn agonist and antagonist efficacy for AR, GR and MR were measured as described above for PR. The results are the mean±SEM of three independent experiments.
Transfection assays were performed in HEK 293T cells by using expression vectors for the hAR, hGR and hMR and the GRE2-Luc reporter used for the PR transactivation assays.

[2] = system: PRB-mediated amphiregulin gene transcription; test: Quantitative RT-PCR of endogenous gene transcription in MDA-MB-231 iPRAB cells; type: cell-based, human; details: APRn 1 μM, 6 h, FIG. 10
Procedure: MDA-MB-231 iPRAB cells were cultured in 6-well plates in RPMI 1640 medium with L-glutamine without phenol red, enriched with 5% DCC serum containing inducer ligand RSL1 (500 nM) or Dox (1 μg/ml) for PRA or PRB expression during 24 h. […] Total RNA was then extracted using TRIZOL reagent (Invitrogen). One μg of total RNA was treated with DNase I Amplification Grade (Invitrogen) and then reverse transcribed using cDNA RT kit from Applied Biosystems (Courtaboeuf, France) and random primers. Following a ten-fold dilution, the cDNA samples were amplified in duplicate by real-time PCR in ABI 7300 apparatus (Applied Biosystems), using the Power SYBR Green PCR Master Mix (Applied Biosystems) in the presence of 300 nM of forward and reverse specific primers. A dissociation curve was also obtained at the end of the reaction to verify the specificity of the pair of primers. Standard curve for PCR calibration of each gene transcript tested was obtained with the corresponding amplicon subcloned in pGEMT-easy (Promega) and verified by sequencing analysis. The expression level of each gene transcript was normalized to 18S RNA level, and results were expressed as means of relative concentrations of six samples (attomole of specific gene cDNA/femtomole of 18S cDNA±SEM.)
The selected APRn (APR16, APR19, APR43, APR47, APR51, APR54) were verified for their agonist and antagonistic properties on endogenous gene transcription. A ligand activated PRB target gene, amphiregulin was selected for these studies (Georgiakaki, M. Mol Endocrinol 2006, 20, 2122) and quantitative RT-PCR analysis was performed in MDA-MB-231 iPRAB cells as described in Materials and Methods.

SMILES | MR Antagonist efficacy (%) [1] [%] | MR Agonist efficacy (%) [1] [%] | agonistic effect on amphiregulin gene transcription [2]
CC(=O)[C@H]1CC[C@H]2[C@@H]3CC=C4C[C@@H](F)CC[C@]4(C)[C@H]3CC[C@]12C [APR-16, 3β-Fluoropregn-5-en-20-one] | −2.7 ± 3.3 | 0.53 ± 0.05 | nearly unable to exert agonistic effect
C[C@@H]1CCC2C3CC=C4C[C@@H](F)CC[C@]4(C)C3CC[C@]2(C)[C@H]1F (stereo partly drawn) [APR-19, 3β,17α-Difluoro-17α-methyl-D-Homo-pregn-5-ene] | −1.0 ± 3.5 | 0.57 ± 0.07 | 
CC#C[C@]1(O)CCC2C3CC[C@H]4CCCC[C@]4(C)C3CC[C@@]21C (stereo partly drawn) [APR-42, 17α-(1-Propynyl)-5α-androstan-17β-ol] | 0.4 ± 2.6 | 0.57 ± 0.05 | 
C[C@]12CCC3C(CC=C4C[C@@H](F)CC[C@@H]43)C1CCC2=O (stereo partly drawn) [APR-47, 3β-Fluoro-19-nor-androst-5-en-17-one] | 2.2 ± 2.1 | 0.50 ± 0.14 | nearly unable to exert agonistic effect
CC#C[C@]1(O)CCC2C3CC[C@H]4CCCC[C@@H]4C3CC[C@@]21C (stereo partly drawn) [APR-54, 17α-(1-Propynyl)-19-nor-5-androstan-17β-ol] | 3.4 ± 6.2 | 0.53 ± 0.11 | nearly unable to exert agonistic effect
